One test concerns the target T1, HIV-1 protease (Human immunodeficiency virus type 1 group M subtype B, UniProt P04585).
T1 construct: A simple, continuous fluorometric assay for HIV protease
The test can be described thus: HIV protease enzyme inhibition, fluorometric assay of Toth and Marshall. It counts as biochemical. Conditions: read-out: Ki. Here is the method: (§1) The inhibitory potencies of acyclic and cyclic inhibitors were measured by the assay protocol of Toth and Marshall (Toth, M. V.; Marshall, G. R. A simple, continuous fluorometric assay for HIV protease. Int. J. Pep. Protien Res. 1990, 36, 544-55).

The next test concerns HIV-1. As to the kind of experiment: antiviral assay (IC50). To be noted: read-out: IC50. It counts as cell-based. Here is the method: as §1
The mark [1] stands for this setting: Human immunodeficiency virus 1, Table 1, acyclic compounds.
The mark [2] stands for this setting: Human immunodeficiency virus 1, Table 2.
[3] abbreviates: Human immunodeficiency virus 1, Table 3, E and Z isomers.

Molecules are shown by their SMILES. Read-outs that look alike come from different tables or passages of the source. Bounds are passed on as bounds.

For the compound `C=CCCCCOc1cc(OC)ccc1S(=O)(=O)N(CC(C)CC=C)C[C@@H](O)[C@H](Cc1ccccc1)NC(=O)O[C@H]1CO[C@H]2OCC[C@H]21` (single isomer, unassigned) [Compound 19b], the inhibitory constant (Ki) at HIV-1 protease (Table 4) is less than 0.01 µM. The half-inhibitory concentration (IC50) with HIV-1 (Table 4) was less than 0.1 µM.
On the same counts, the results for `C=CCCCCOc1cc(OC)ccc1S(=O)(=O)N(CC(C)CC=C)C[C@@H](O)[C@H](Cc1ccccc1)NC(=O)O[C@H]1CO[C@H]2OCC[C@H]21` (single isomer, unassigned) [Compound 19c] are less than 0.01 µM and greater than 1 µM.
As for `C=CCCCCOc1cc(OC)ccc1S(=O)(=O)N(CCCCC=C)CC(O)C(Cc1ccccc1)NC(=O)OC1COC2OCCC12` (stereo not drawn) [Compound 13a], the inhibitory constant (Ki) at HIV-1 protease (Table 1, acyclic compounds) was less than 0.1 µM; at HIV-1 protease, 0.016 µM. Also, the IC50 in the test with HIV-1 (setting [1]) is greater than 1 µM.
As for `C=CCCCCN(CC(O)C(Cc1ccccc1)NC(=O)OC1COC2OCCC12)S(=O)(=O)c1ccc(OC)cc1OCCCC=C` (stereo not drawn) [Compound 13b], the Ki on HIV-1 protease (Table 1, acyclic compounds) is less than 0.1 µM; on HIV-1 protease it was 0.011 µM. The IC50 with HIV-1 (setting [1]) and in the test with HIV-1 (Human immunodeficiency virus 1) was greater than 1 µM in each case.
As to `C=CCCCCN(CC(O)C(Cc1ccccc1)NC(=O)OC1COC2OCCC12)S(=O)(=O)c1ccc(OC)cc1OCCC=C` (stereo not drawn) [Compound 13c], the Ki at HIV-1 protease (Table 1, acyclic compounds) is less than 0.01 µM.
On to `C=CCCCCN(CC(O)C(Cc1ccccc1)NC(=O)OC1COC2OCCC12)S(=O)(=O)c1ccc(OC)cc1OCC=C` (stereo not drawn) [Compound 13d], for which the inhibition constant (Ki) at HIV-1 protease (Table 1, acyclic compounds) is less than 0.01 µM.
On to `C=CCCCCOc1cc(OC)ccc1S(=O)(=O)N(CC=C)CC(O)C(Cc1ccccc1)NC(=O)OC1COC2OCCC12` (stereo not drawn) [Compound 13e], for which the inhibition constant Ki was less than 0.01 µM at HIV-1 protease (Table 1, acyclic compounds) and 0.0017 µM on HIV-1 protease. In addition, in the test on HIV-1 (setting [1]), the IC50 is less than 0.1 µM.
For the compound `C=CCCCOc1cc(OC)ccc1S(=O)(=O)N(CC=C)CC(O)C(Cc1ccccc1)NC(=O)OC1COC2OCCC12` (stereo not drawn) [Compound 13f], the inhibition constant Ki on HIV-1 protease (Table 1, acyclic compounds) was less than 0.001 µM. In addition, in the test with HIV-1 (setting [1]), the 50% inhibitory concentration (IC50) was less than 0.1 µM.
Turning to `C=CCCOc1cc(OC)ccc1S(=O)(=O)N(CC=C)CC(O)C(Cc1ccccc1)NC(=O)OC1COC2OCCC12` (stereo not drawn) [Compound 13g], on HIV-1 protease (Table 1, acyclic compounds), the Ki was less than 0.001 µM.
On to `COc1ccc2c(c1)OCCCCC=CCCCCN(CC(O)C(Cc1ccccc1)NC(=O)OC1COC3OCCC13)S2(=O)=O` (stereo not drawn) [Compound 14a-E], for which the Ki on HIV-1 protease (Table 3, E and Z isomers) is less than 0.001 µM. Also, the 50% inhibitory concentration (IC50) with HIV-1 (Table 3, E and Z isomers) was less than 0.1 µM.
For `COc1ccc2c(c1)OCCCCC=CCCCCN(CC(O)C(Cc1ccccc1)NC(=O)OC1COC3OCCC13)S2(=O)=O` (stereo not drawn) [Compound 14a-Z], the Ki at HIV-1 protease (Table 3, E and Z isomers) is less than 0.001 µM. Also, the IC50 in the test with HIV-1 (Table 3, E and Z isomers) is greater than 1 µM.
`COc1ccc2c(c1)OCCCCC=CCCCCN(CC(O)C(Cc1ccccc1)NC(=O)OC1COC3OCCC13)S2(=O)=O` (stereo not drawn) [Compound 14a]: the inhibitory constant (Ki) at HIV-1 protease (Table 2) is less than 0.001 µM. Besides, in the test with HIV-1 (setting [2]), the half-inhibitory concentration (IC50) was less than 0.1 µM.
For the compound `COc1ccc2c(c1)OCCCC=CCCCCN(CC(O)C(Cc1ccccc1)NC(=O)OC1COC3OCCC13)S2(=O)=O` (stereo not drawn) [Compound 14b-Z], the inhibitory constant (Ki) on HIV-1 protease (Table 3, E and Z isomers) was less than 0.001 µM. The 50% inhibitory concentration (IC50) with HIV-1 (setting [3]) is less than 0.01 µM.
`COc1ccc2c(c1)OCCC=CCCCCN(CC(O)C(Cc1ccccc1)NC(=O)OC1COC3OCCC13)S2(=O)=O` (stereo not drawn) [Compound 14c-E]: in the test with HIV-1 (setting [3]), the IC50 is less than 0.01 µM.
As to `COc1ccc2c(c1)OCCCCC=CCN(CC(O)C(Cc1ccccc1)NC(=O)OC1COC3OCCC13)S2(=O)=O` (stereo not drawn) [Compound 14e], on HIV-1 protease (Table 2), the inhibitory constant (Ki) is less than 0.001 µM. Also, in the test with HIV-1 (setting [2]), the concentration for half-maximal inhibition (IC50) is less than 0.1 µM.
Turning to `COc1ccc2c(c1)OCCCC=CCN(CC(O)C(Cc1ccccc1)NC(=O)OC1COC3OCCC13)S2(=O)=O` (stereo not drawn) [Compound 14f], the Ki on HIV-1 protease (Table 2) was less than 0.001 µM. For the same compound, the IC50 in the test on HIV-1 (setting [2]) was less than 0.1 µM.
In the case of `COc1ccc2c(c1)OCCC=CCN(CC(O)C(Cc1ccccc1)NC(=O)OC1COC3OCCC13)S2(=O)=O` (stereo not drawn) [Compound 14g], on HIV-1 protease (Table 2), the inhibition constant (Ki) was less than 0.001 µM.
In the case of `COc1ccc2c(c1)OCC=CCN(CC(O)C(Cc1ccccc1)NC(=O)OC1COC3OCCC13)S2(=O)=O` (stereo not drawn) [Compound 14h], the Ki at HIV-1 protease (Table 2) was less than 0.01 µM.
In the case of `COc1ccc2c(c1)OCCCCCCCCCCN(CC(O)C(Cc1ccccc1)NC(=O)OC1COC3OCCC13)S2(=O)=O` (stereo not drawn) [Compound 15a], the inhibition constant Ki at HIV-1 protease (Table 2) was less than 0.001 µM. In the test on HIV-1 (setting [2]), the IC50 was less than 0.1 µM.
Turning to `COc1ccc2c(c1)OCCCCCCCCCN(CC(O)C(Cc1ccccc1)NC(=O)OC1COC3OCCC13)S2(=O)=O` (stereo not drawn) [Compound 15b], the figures for the Ki on HIV-1 protease (Table 2) and at HIV-1 protease were less than 0.001 µM and less than 0.0007 µM, respectively. Further, the IC50 in the test on HIV-1 (setting [2]) is less than 0.1 µM; with HIV-1 (Human immunodeficiency virus 1), less than 0.049 µM.
On to `COc1ccc2c(c1)OCCCCCCCN(CC(O)C(Cc1ccccc1)NC(=O)OC1COC3OCCC13)S2(=O)=O` (stereo not drawn) [Compound 15d], for which the Ki at HIV-1 protease (Table 2) is less than 0.001 µM. Besides, the IC50 with HIV-1 (setting [2]) is less than 0.1 µM.
Consider `COc1ccc2c(c1)OCCCCCN1CCC[C@@H]1CN(C[C@@H](O)[C@H](Cc1ccccc1)NC(=O)O[C@H]1CO[C@H]3OCC[C@H]31)S2(=O)=O` [Compound 00610A], for which the Ki on HIV-1 protease (Table 5) is greater than 0.1 µM.
Consider `C=CCN1CCCC1CN(C[C@@H](O)[C@H](Cc1ccccc1)NC(=O)O[C@H]1CO[C@H]2OCC[C@H]21)S(=O)(=O)c1ccc(OC)cc1` (stereo partly drawn) [Compound 0649A], for which the Ki on HIV-1 protease (Table 5) is less than 0.01 µM.
The same measure, in the same setting: under `C=CCOc1cc(OC)ccc1S(=O)(=O)N(CC1CCCN1CC=C)C[C@@H](O)[C@H](Cc1ccccc1)NC(=O)O[C@H]1CO[C@H]2OCC[C@H]21` (stereo partly drawn) [Compound 0659A] stands greater than 0.1 µM.
On the same count and under the same terms, as for `COc1ccc2c(c1)OCC/C=C/CN1CCC[C@H]1CN(C[C@@H](O)[C@H](Cc1ccccc1)NC(=O)O[C@H]1CO[C@H]3OCC[C@H]31)S2(=O)=O` [Compound 00810A], the figure is greater than 0.1 µM; as for `COc1ccc2c(c1)OCC/C=C/CN1C(=O)CC[C@@H]1CN(C[C@@H](O)[C@H](Cc1ccccc1)NC(=O)OC(C)(C)C)S2(=O)=O` [Compound 00910A], greater than 0.1 µM; as for `COc1ccc2c(c1)OCC/C=C\CN1C(=O)CC[C@@H]1CN(C[C@@H](O)[C@H](Cc1ccccc1)NC(=O)OC(C)(C)C)S2(=O)=O` [Compound 01010A], greater than 0.1 µM.
As for `C=CCN1C(=O)CC[C@@H]1CN(C[C@@H](O)[C@H](Cc1ccccc1)NC(=O)O[C@H]1CO[C@H]2OCC[C@H]21)S(=O)(=O)c1ccc(OC)cc1` [Compound 01110A], the inhibition constant Ki on HIV-1 protease (Table 5) was less than 0.001 µM.
In the case of `COc1ccc2c(c1)OCC/C=C/CN1C(=O)CC[C@@H]1CN(C[C@@H](O)[C@H](Cc1ccccc1)NC(=O)O[C@H]1CO[C@H]3OCC[C@H]31)S2(=O)=O` [Compound 01210A], at HIV-1 protease (Table 5), the Ki is less than 0.001 µM.
Regarding `COc1ccc2c(c1)OCC/C=C\CN1C(=O)CC[C@@H]1CN(C[C@@H](O)[C@H](Cc1ccccc1)NC(=O)O[C@H]1CO[C@H]3OCC[C@H]31)S2(=O)=O` [Compound 01310A], the Ki on HIV-1 protease (Table 5) was less than 0.1 µM.
For the compound `COc1ccc2c(c1)OCCC=CCN1C(=O)CC[C@H]1CN(C[C@@H](O)[C@H](Cc1ccccc1)NC(=O)O[C@H]1CO[C@H]3OCC[C@H]31)S2(=O)=O` [Compound 01410A], at HIV-1 protease (Table 5), the Ki was greater than 0.1 µM.
Regarding `COc1ccc2c(c1)OCCCCCN1C(=O)CC[C@H]1CN(C[C@@H](O)[C@H](Cc1ccccc1)NC(=O)O[C@H]1CO[C@H]3OCC[C@H]31)S2(=O)=O` [Compound 02110A], the inhibitory constant (Ki) at HIV-1 protease (Table 5) was less than 0.1 µM.
As to `COc1ccc2c(c1)OCCCCCN1C(=O)CC[C@@H]1CN(C[C@@H](O)[C@H](Cc1ccccc1)NC(=O)O[C@H]1CO[C@H]3OCC[C@H]31)S2(=O)=O` [Compound 02210A], on HIV-1 protease (Table 5), the inhibition constant Ki is less than 0.001 µM.

(Values after patent US9617276B2, “Compounds and methods for treating AIDS and HIV infections” (priority 2009, dated 2017).)
